pIC50: −log10 of the molar value. Like-named read-outs stand apart in the source and are kept apart here.
Tests used:
[1] = system: HUVEC normal cells; assay: MTS cell viability assay, HUVEC normal cells; assay type: cell-based, human; settings: Homo sapiens, HUVEC
Procedure: (§1) To determine the optimal working concentration, dose-effect curves were made for each compound in the range of concentrations between 6.25 and 400 μM.
(§2) LoVo (human colorectal adenocarcinoma) human cancer cell line and HUVEC normal cells were purchased from American Type Culture Collection (ATCC). The MCF-7 human breast adenocarcinoma cell line was provided from European Collection of Authenticated Cell Cultures (ECACC). HUVEC normal cells, isolated from the vascular endothelium of an umbilical cord, were used as a reference. Adherent cells were maintained in culture in Dulbecco’s modified Eagle medium/nutrient mixture F-12 (DMEM:F12) with 2 mM of L-glutamine, 10% fetal bovine serum, 100 units/mL of penicillin and 100 μg/mL of streptomycin, and incubated at 37 °C in a 5% CO2-humidified atmosphere. After 24 h, adherent cells were treated with different concentrations of the compounds for different periods of time. Cis-Pt and DOX, conventional oncology drugs used in cancer treatments, can be used as a positive control of the experiments. […] Then, cells were detached with a nonenzymatic solution of phosphate-buffered saline (PBS)/1 mM EDTA and washed twice in PBS.
(§3) The study utilized a colorimetric assay based on MTS (chemically known as 3-(4,5-dimethylthiazol-2-yl)-5-(3-carboxymethoxyphenyl)-2-(4-sulfophenyl)-2H-tetrazolium) and called CellTiter 96 Aqueous One Solution Cell proliferation Assay (Promega, Madison, WI, USA) in order to measure cell viability. The assay was performed in triplicate in 96-well microtiter plates with a flat bottom (Falcon). A number of 1 × 10^4 cells/well were cultured in 100 μL for 24 h, culture supernatants were discarded, and then cells were treated for 24 and 48 h with increasing concentrations of the tested compound. After the end of the incubation time, 20 μL of the reagent containing MTS and PES (phenazine ethosulfate) was added in each well. Plates were incubated for 4 h at 37 °C, with mild agitation every 15 min. The reduction in the tetrazolium compound to formazan was spectrophotometrically measured at λ = 492 nm using a Dynex plate reader (DYNEX Technologies MRS, Chantilly, VA, USA). The percentage of viability compared to untreated cells (considered 100% viable) was calculated with the formula:(1) Cell viability (%)=Absorbance treated cells−Absorbance culture medium/Absorbance untreated cells−Absorbance culture medium×100
(§4) The cell viability compared was calculated and data were expressed as a mean ± standard deviation (SD) of the experiments and obtained in triplicate (n = 3).

[2] = system: LoVo cells; assay: MTS cell viability assay, LoVo cells; assay type: cell-based, human; settings: Homo sapiens, LoVo
Procedure: as §1, §2, §3, §4

[3] = system: MCF-7 cells; assay: MTS cell viability assay, MCF-7 cells; assay type: cell-based, human; settings: Homo sapiens
Procedure: as §1, §2, §3, §4

[4] = system: HUVEC cells; assay: Apoptosis assay (Annexin V-FITC/PI flow cytometry), HUVEC; assay type: cell-based, human
Procedure: (§5) Two reference concentrations, 5 μM and 50 μM, and two distinct treatment durations, 24 and 48 h, were employed to assess the influence of the test compounds on apoptosis in both normal and tumor cells. […] HUVEC cells were exposed to both drugs.
(§6) The apoptosis assay was performed according to the manufacturer’s instructions using the Annexin V-FITC kit (BD Biosciences, San Jose, CA, USA). Cells untreated and treated with the experimental compound were suspended in a cold binding buffer. The percentages of apoptotic cells were determined by double staining with Annexin V-FITC/PI. In each tube was added 400 μL of Annexin V binding buffer and the 5000 cells/sample for 15 min in the dark at room temperature. The cells were analyzed using a FACSCantoII flow-cytometer (Becton Dickinson—BD, La Jolla, CA, USA). The analysis was performed using DIVA 6.2 software to discriminate viable cells (FITC-PI-) from necrotic cells (FITC + PI+), and early apoptosis (FITC + PI) from late apoptosis.

[5] = system: LoVo cells; assay: Apoptosis assay (Annexin V-FITC/PI flow cytometry), LoVo; assay type: cell-based, human
Procedure: as §5, §6

[6] = system: MCF-7 cells; assay: Apoptosis assay (Annexin V-FITC/PI flow cytometry), MCF-7; assay type: cell-based, human
Procedure: as §5, §6

[7] = Daphnia magna toxicity assay; assay type: in vivo; settings: Daphnia magna, in vivo
Procedure: (§7) The Daphnia magna bioassay results are presented in Table 3 as the maximum average percentage of lethality (L%) registered for each compound and the median lethal concentration (LC50) if the values permitted its calculation.
(§8) Daphnia magna Straus is parthenogenetically maintained at ‘Carol Davila’ University’s Department of Pharmaceutical Botany and Cell Biology. The culture was consistently maintained at a temperature of 25 °C, with a 16-h light and 8-h dark photoperiod. To ensure consistency, young daphnids were carefully chosen based on their size and kept in an artificial medium for 24 h prior to the assessment. The bioassay involved 10 daphnids per replicate, using tissue culture plates with 12 wells from Greiner Bio-One. The experimental procedure followed the protocol described in previous studies.
(§9) Each determination was carried out in duplicate.

[8] = system: Daphnia magna; assay: Daphnia magna toxicity assay; assay type: in vivo; settings: up to 200 µM
Procedure: as §7, §8, §9

[9] = system: MCF-7; parameters: method as in earlier work; settings: ref 16 (Yang et al.); cited from earlier work
[10] = read-out: IC50 (48 h) HUVEC, 48 h exposure
[11] = 24 h exposure, read-out: IC50 (24 h) HUVEC
[12] = read-out: IC50 (48 h) LoVo, 48 h exposure
[13] = 24 h exposure, read-out: IC50 (24 h) LoVo
[14] = MCF7, read-out: IC50 (48 h) MCF-7, 48 h exposure
[15] = MCF7, 24 h exposure, read-out: IC50 (24 h) MCF-7

Compound	pIC50 [1, 10]	pIC50 [1, 11]	pIC50 [2, 12]	pIC50 [2, 13]	pIC50 [3, 14]	pIC50 [3, 15]	Total Apoptosis (%) 24 h HUVEC ([4]; 5 μM)	Total Apoptosis (%) 48 h HUVEC ([4]; 5 μM)	Total Apoptosis (%) 24 h HUVEC ([4]; 50 μM)	Total Apoptosis (%) 48 h HUVEC ([4]; 50 μM)	Total Apoptosis (%) 24 h LoVo ([5]; 5 μM)	Total Apoptosis (%) 48 h LoVo ([5]; 5 μM)	Total Apoptosis (%) 24 h LoVo ([5]; 50 μM)	Total Apoptosis (%) 48 h LoVo ([5]; 50 μM)	Total Apoptosis (%) 24 h MCF-7 ([6]; 5 μM)	Total Apoptosis (%) 48 h MCF-7 ([6]; 5 μM)	Total Apoptosis (%) 24 h MCF-7 ([6]; 50 μM)	LC50 at 48 h [7]	Maximum Average L% (lethality) ([8]; 24 h)	Maximum Average L% (lethality) ([8]; 48 h)	further results
COc1ccc(OC)c(-c2nnc(N)s2)c1 [2d, 5-(2,5-Dimethoxyphenyl)-1,3,4-thiadiazol-2-amine]	4.02	< 3.40	4.54	4.27	3.92	3.81	28.4%	14.4%	19.8%	16.8%	13.5%	19.3%	12.0%	17.9%	14.6%	37.6%	11.8%	50.7 µM	40%	95%	Total Apoptosis (%) 48 h MCF-7 ([6]; 50 μM): 34.9%; LC50 at 24 h [7]: 241 µM
CC(=O)Nc1nnc(-c2ccccc2)s1 [3a, N-(5-Phenyl-1,3,4-thiadiazol-2-yl)acetamide]	< 3.40	< 3.40	< 3.40	< 3.40	< 3.40	< 3.40	26.6%	18.2%	22.6%	20.1%	14.9%	20.1%	14.5%	22.3%	17.6%	24.9%	17.9%	< 6.25 µM	95%	100%	LC50 at 24 h [7]: < 6.25 µM
O=C(Nc1nnc(-c2ccccc2)s1)c1ccccc1 [3b, N-(5-Phenyl-1,3,4-thiadiazol-2-yl)benzamide]	< 3.40	< 3.40	4.20	3.76	< 3.40	< 3.40	17.8%	15.3%	17.0%	15.9%	12.5%	22.2%	12.6%	20.9%	19.2%	43.7%	16.4%	228 µM	5%	45%	viability at 200 µM ([2]; 24 h, 200 μM, read-out: viability of LoVo tumor cells): < 50%; Total Apoptosis (%) 48 h MCF-7 ([6]; 50 μM): 41.3%; pIC50 [9]: 5.23
O=C(Nc1nnc(-c2ccccc2)s1)c1ccccc1CSc1ccccc1 [3c, 2-Phenylthiomethyl-N-(5-phenyl-1,3,4-thiadiazol-2-yl)benzamide]	< 3.40	< 3.40	< 3.40	< 3.40	< 3.40	< 3.40	15.5%	13.5%	16.9%	14.7%	14.8%	27.6%	11.2%	24.5%	16.4%	39.3%	14.3%	188 µM	10%	55%	Total Apoptosis (%) 48 h MCF-7 ([6]; 50 μM): 37.3%

Source: PMC10743895, “Synthesis of 1,3,4-Thiadiazole Derivatives and Their Anticancer Evaluation” (International Journal of Molecular Sciences, 2023)
